Patent US11795204B2 (Zealand Pharma A/S, priority 2012, dated 2023)
Square brackets hold non-standard residues; d marks the D form. Peptide text beside a SMILES is read from it. Dab = NCC[C@H](N)C(=O)O; Aib = CC(C)(N)C(=O)O

Legend:
physchem = conditions: pH 7.5
Experimental: A stock solution of the test peptide (2 mg/ml; determined by measurement of the absorption of the solution at 280 nm, and using the theoretical extension coefficient based on the content of tryptophan and tyrosine in the peptide) in demineralized water adjusted to pH 2.5 with HCl was prepared, and aliquots were diluted 1:1 in 100 mM acetate buffer (pH 4.0) and 100 mM phosphate buffer (pH 7.5), respectively, and loaded in a standard flat-bottom, non-sterile 96-well UV Microplate. The absorbance of samples (single samples, n=1) at 280 and 325 nm was measured in an absorbance-based plate reader, which was preheated to ambient temperature.

human Glucagon-R = target: T1, human Glucagon-R (Homo sapiens, UniProt P47871); assay: Glucagon receptor assay (cAMP induction, AlphaScreen); type: cell-based; conditions: HEK293 cells expressing the human Glucagon-R, 15 min at 37° C., read-out: GCG-R EC50 in vitro
T1 construct: expressed in transfected cells
T1 sequence (P47871 26-477): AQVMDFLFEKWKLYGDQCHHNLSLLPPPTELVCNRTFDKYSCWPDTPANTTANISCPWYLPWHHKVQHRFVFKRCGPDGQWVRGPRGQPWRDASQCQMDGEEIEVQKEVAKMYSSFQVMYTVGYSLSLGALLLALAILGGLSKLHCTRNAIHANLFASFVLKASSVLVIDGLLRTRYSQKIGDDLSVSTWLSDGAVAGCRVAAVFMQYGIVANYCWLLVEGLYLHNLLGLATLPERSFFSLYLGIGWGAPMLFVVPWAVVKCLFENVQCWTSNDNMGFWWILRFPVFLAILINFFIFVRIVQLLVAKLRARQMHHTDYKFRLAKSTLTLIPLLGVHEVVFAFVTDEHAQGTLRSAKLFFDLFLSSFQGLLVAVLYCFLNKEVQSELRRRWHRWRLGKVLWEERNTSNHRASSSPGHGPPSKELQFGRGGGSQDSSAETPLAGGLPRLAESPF
Experimental: The 5′-end primers additionally encoded a near-Kozak consensus sequence to ensure efficient translation. […] 48 hr after transfection, cells were seeded for limited dilution cloning and selected with 1 mg/ml G418 in the culture medium.
On the day of analysis, growth medium was removed and the cells were washed once with […] of the included Assay buffer with IBMX. Cells were incubated in […] Assay buffer/IBMX containing increasing concentrations of test peptides for 15 min at 37° C. Then the peptides/Assay buffer was removed and cells were lysed by addition of […] Lysis buffer pr. well and incubation for at least 10 min at room temperature. From each well […] cell lysate was transferred to a 384-well OptiPlate and mixed with Donor and Acceptor beads and incubated for 1 h at room temperature. The cAMP content was measured on an Envision plate reader.

SMILES | solubility (physchem) [µg/mL] | EC50 (human Glucagon-R) [nM]
CC(C)C[C@H](NC(=O)[C@H](Cc1c[nH]c2ccccc12)NC(=O)[C@H](CCCCN)NC(=O)[C@@H](NC(=O)[C@H](Cc1ccccc1)NC(=O)[C@H](CO)NC(=O)[C@H](CCC(=O)O)NC(=O)[C@H](C)NC(=O)[C@H](CCCNC(=N)N)NC(=O)[C@H](C)NC(=O)C(C)(C)NC(=O)[C@H](CC(=O)O)NC(=O)[C@H](CC(C)C)NC(=O)[C@H](Cc1ccc(O)cc1)NC(=O)[C@H](CCCCN)NC(=O)[C@H](CO)NC(=O)[C@H](Cc1ccc(O)cc1)NC(=O)[C@H](CC(=O)O)NC(=O)[C@H](CO)NC(=O)[C@@H](NC(=O)[C@H](Cc1ccccc1)NC(=O)[C@@H](NC(=O)CNC(=O)[C@H](CCC(N)=O)NC(=O)[C@H](C)NC(=O)[C@@H](N)Cc1c[nH]cn1)[C@@H](C)O)[C@@H](C)O)C(C)C)C(=O)N[C@@H](CCC(=O)O)C(=O)N[C@@H](CO)C(=O)N[C@H](C(=O)O)[C@@H](C)O [Compound 20] (H-HAQGTFTSDYSKYLD[Aib]ARAESFVKWLEST-OH) | ≥ 1000 | 0.24
CC(C)C[C@H](NC(=O)[C@H](Cc1c[nH]c2ccccc12)NC(=O)[C@H](CCCCN)NC(=O)[C@@H](NC(=O)[C@H](Cc1ccccc1)NC(=O)[C@H](CO)NC(=O)[C@H](CCC(=O)O)NC(=O)[C@H](C)NC(=O)[C@H](CCCNC(=N)N)NC(=O)[C@H](C)NC(=O)C(C)(C)NC(=O)[C@H](CC(=O)O)NC(=O)[C@H](CC(C)C)NC(=O)[C@H](Cc1ccc(O)cc1)NC(=O)[C@H](CCCCN)NC(=O)[C@H](CO)NC(=O)[C@@H](NC(=O)[C@H](CC(=O)O)NC(=O)[C@H](CO)NC(=O)[C@@H](NC(=O)[C@H](Cc1ccccc1)NC(=O)[C@@H](NC(=O)CNC(=O)[C@H](CCC(N)=O)NC(=O)[C@H](CO)NC(=O)[C@@H](N)Cc1c[nH]cn1)[C@@H](C)O)[C@@H](C)O)C(C)C)C(C)C)C(=O)N[C@@H](CCC(=O)O)C(=O)N[C@@H](CO)C(=O)N[C@H](C(=O)O)[C@@H](C)O [Compound 23] (H-HSQGTFTSDVSKYLD[Aib]ARAESFVKWLEST-OH) | ≥ 1000 | 0.16
CC(C)C[C@H](NC(=O)[C@H](Cc1c[nH]c2ccccc12)NC(=O)[C@H](CO)NC(=O)[C@@H](NC(=O)[C@H](Cc1ccccc1)NC(=O)[C@H](CCC(=O)O)NC(=O)[C@H](CCC(=O)O)NC(=O)[C@H](C)NC(=O)[C@H](CCCNC(=N)N)NC(=O)[C@H](C)NC(=O)C(C)(C)NC(=O)[C@H](CC(=O)O)NC(=O)[C@H](CC(C)C)NC(=O)[C@H](Cc1ccc(O)cc1)NC(=O)[C@H](CCCCN)NC(=O)[C@H](CO)NC(=O)[C@H](Cc1ccc(O)cc1)NC(=O)[C@H](CC(=O)O)NC(=O)[C@H](CO)NC(=O)[C@@H](NC(=O)[C@H](Cc1ccccc1)NC(=O)[C@@H](NC(=O)CNC(=O)[C@H](CCC(N)=O)NC(=O)[C@H](CO)NC(=O)[C@@H](N)Cc1c[nH]cn1)[C@@H](C)O)[C@@H](C)O)C(C)C)C(=O)N[C@@H](CCC(=O)O)C(=O)N[C@@H](CCCCN)C(=O)N[C@H](C(=O)O)[C@@H](C)O [Compound 33] (H-HSQGTFTSDYSKYLD[Aib]ARAEEFVSWLEKT-OH) | ≥ 1000 | 0.044
CC(C)C[C@H](NC(=O)[C@H](Cc1c[nH]c2ccccc12)NC(=O)[C@H](CCC(=O)O)NC(=O)[C@@H](NC(=O)[C@H](Cc1ccccc1)NC(=O)[C@H](CCCCN)NC(=O)[C@H](CCC(=O)O)NC(=O)[C@H](C)NC(=O)[C@H](CCCNC(=N)N)NC(=O)[C@H](C)NC(=O)C(C)(C)NC(=O)[C@H](CC(=O)O)NC(=O)[C@H](CC(C)C)NC(=O)[C@H](Cc1ccc(O)cc1)NC(=O)[C@H](CCCCN)NC(=O)[C@H](CO)NC(=O)[C@H](Cc1ccc(O)cc1)NC(=O)[C@H](CC(=O)O)NC(=O)[C@H](CO)NC(=O)[C@@H](NC(=O)[C@H](Cc1ccccc1)NC(=O)[C@@H](NC(=O)CNC(=O)[C@H](CCC(N)=O)NC(=O)[C@H](CO)NC(=O)[C@@H](N)Cc1c[nH]cn1)[C@@H](C)O)[C@@H](C)O)C(C)C)C(=O)N[C@@H](CCC(=O)O)C(=O)N[C@@H](CO)C(=O)N[C@H](C(=O)O)[C@@H](C)O [Compound 34] (H-HSQGTFTSDYSKYLD[Aib]ARAEKFVEWLEST-OH) | ≥ 1000 | 0.028
CC(C)C[C@H](NC(=O)[C@H](Cc1c[nH]c2ccccc12)NC(=O)[C@H](C)NC(=O)[C@@H](NC(=O)[C@H](Cc1ccccc1)NC(=O)[C@H](CCC(=O)O)NC(=O)[C@H](CCC(=O)O)NC(=O)[C@H](C)NC(=O)[C@H](CCCNC(=N)N)NC(=O)[C@H](C)NC(=O)C(C)(C)NC(=O)[C@H](CC(=O)O)NC(=O)[C@H](CC(C)C)NC(=O)[C@H](Cc1ccc(O)cc1)NC(=O)[C@H](CCCCN)NC(=O)[C@H](CO)NC(=O)[C@H](Cc1ccc(O)cc1)NC(=O)[C@H](CC(=O)O)NC(=O)[C@H](CO)NC(=O)[C@@H](NC(=O)[C@H](Cc1ccccc1)NC(=O)[C@@H](NC(=O)CNC(=O)[C@H](CCC(N)=O)NC(=O)[C@H](CO)NC(=O)[C@@H](N)Cc1c[nH]cn1)[C@@H](C)O)[C@@H](C)O)C(C)C)C(=O)N[C@@H](CCC(=O)O)C(=O)N[C@@H](CO)C(=O)N[C@H](C(=O)O)[C@@H](C)O [Compound 35] (H-HSQGTFTSDYSKYLD[Aib]ARAEEFVAWLEST-OH) | ≥ 1000 | 0.014
CC(C)C[C@H](NC(=O)[C@H](Cc1c[nH]c2ccccc12)NC(=O)[C@H](CCCCN)NC(=O)[C@@H](NC(=O)[C@H](Cc1ccccc1)NC(=O)[C@H](CCC(=O)O)NC(=O)[C@H](CCC(=O)O)NC(=O)[C@H](C)NC(=O)[C@H](CCCNC(=N)N)NC(=O)[C@H](C)NC(=O)C(C)(C)NC(=O)[C@H](CC(=O)O)NC(=O)[C@H](CC(C)C)NC(=O)[C@H](Cc1ccc(O)cc1)NC(=O)[C@H](CCCCN)NC(=O)[C@H](CO)NC(=O)[C@H](Cc1ccc(O)cc1)NC(=O)[C@H](CC(=O)O)NC(=O)[C@H](CO)NC(=O)[C@@H](NC(=O)[C@H](Cc1ccccc1)NC(=O)[C@@H](NC(=O)CNC(=O)[C@H](CCC(N)=O)NC(=O)[C@H](CO)NC(=O)[C@@H](N)Cc1c[nH]cn1)[C@@H](C)O)[C@@H](C)O)C(C)C)C(=O)N[C@@H](CCC(=O)O)C(=O)N[C@@H](CCC(=O)O)C(=O)N[C@H](C(=O)O)[C@@H](C)O [Compound 36] (H-HSQGTFTSDYSKYLD[Aib]ARAEEFVKWLEET-OH) | ≥ 1000 | 0.01
CC(C)C[C@H](NC(=O)[C@H](Cc1c[nH]c2ccccc12)NC(=O)[C@H](CCCCN)NC(=O)[C@@H](NC(=O)[C@H](Cc1ccccc1)NC(=O)[C@H](CCC(=O)O)NC(=O)[C@H](CCC(=O)O)NC(=O)[C@H](C)NC(=O)[C@H](CCCNC(=N)N)NC(=O)[C@H](C)NC(=O)C(C)(C)NC(=O)[C@H](CCC(=O)O)NC(=O)[C@H](CC(C)C)NC(=O)[C@H](Cc1ccc(O)cc1)NC(=O)[C@H](CCCCN)NC(=O)[C@H](CO)NC(=O)[C@H](Cc1ccc(O)cc1)NC(=O)[C@H](CC(=O)O)NC(=O)[C@H](CO)NC(=O)[C@@H](NC(=O)[C@H](Cc1ccccc1)NC(=O)[C@@H](NC(=O)CNC(=O)[C@H](CCC(N)=O)NC(=O)[C@H](CO)NC(=O)[C@@H](N)Cc1c[nH]cn1)[C@@H](C)O)[C@@H](C)O)C(C)C)C(=O)N[C@@H](CCC(=O)O)C(=O)N[C@@H](CO)C(=O)N[C@H](C(=O)O)[C@@H](C)O [Compound 37] (H-HSQGTFTSDYSKYLE[Aib]ARAEEFVKWLEST-OH) | ≥ 1000 | 0.094
CC(C)C[C@H](NC(=O)[C@H](Cc1c[nH]c2ccccc12)NC(=O)[C@H](CCCCN)NC(=O)[C@@H](NC(=O)[C@H](Cc1ccccc1)NC(=O)[C@H](CCC(=O)O)NC(=O)[C@H](CCC(=O)O)NC(=O)[C@H](C)NC(=O)[C@H](CCCNC(=N)N)NC(=O)[C@H](C)NC(=O)C(C)(C)NC(=O)[C@H](CC(=O)O)NC(=O)[C@H](CC(C)C)NC(=O)[C@H](Cc1ccc(O)cc1)NC(=O)[C@H](CCCCN)NC(=O)[C@H](CO)NC(=O)[C@H](Cc1ccc(O)cc1)NC(=O)[C@H](CC(=O)O)NC(=O)[C@H](CO)NC(=O)[C@@H](NC(=O)[C@H](Cc1ccccc1)NC(=O)[C@@H](NC(=O)CNC(=O)[C@H](Cc1c[nH]cn1)NC(=O)[C@H](CO)NC(=O)[C@@H](N)Cc1c[nH]cn1)[C@@H](C)O)[C@@H](C)O)C(C)C)C(=O)N[C@@H](CCC(=O)O)C(=O)N[C@@H](CO)C(=O)N[C@H](C(N)=O)[C@@H](C)O [Compound 38] (H-HSHGTFTSDYSKYLD[Aib]ARAEEFVKWLEST-NH2) | ≥ 1000 | 0.0047
CC(=O)NCC[C@H](NC(=O)[C@H](CO)NC(=O)[C@@H](N)Cc1c[nH]cn1)C(=O)NCC(=O)N[C@H](C(=O)N[C@@H](Cc1ccccc1)C(=O)N[C@H](C(=O)N[C@@H](CO)C(=O)N[C@@H](CC(=O)O)C(=O)N[C@@H](Cc1ccc(O)cc1)C(=O)N[C@@H](CO)C(=O)N[C@@H](CCCCN)C(=O)N[C@@H](Cc1ccc(O)cc1)C(=O)N[C@@H](CC(C)C)C(=O)N[C@@H](CC(=O)O)C(=O)NC(C)(C)C(=O)N[C@@H](C)C(=O)N[C@@H](CCCNC(=N)N)C(=O)N[C@@H](C)C(=O)N[C@@H](CCC(=O)O)C(=O)N[C@@H](CCC(=O)O)C(=O)N[C@@H](Cc1ccccc1)C(=O)N[C@H](C(=O)N[C@@H](CCCCN)C(=O)N[C@@H](Cc1c[nH]c2ccccc12)C(=O)N[C@@H](CC(C)C)C(=O)N[C@@H](CCC(=O)O)C(=O)N[C@@H](CO)C(=O)N[C@H](C(=O)O)[C@@H](C)O)C(C)C)[C@@H](C)O)[C@@H](C)O [Compound 39] (H-HS[Dab](Ac)GTFTSDYSKYLD[Aib]ARAEEFVKWLEST-OH) | ≥ 1000 | 0.0044
